Reference: PubChem BioAssay AID1963986 (Molecular Pharmacology Branch, DTP, NCI, 2024)
“And” between values parts separate entries of the source, which are not always exact repeats. Equal entries are not always repeated. Values belong to the compound of their own block, whether it stands above or below them.

Tested on: 171881-019-R-J1-PDC tumor spheroid viability
Assay: Anticancer human tumor 171881-019-R-J1-PDC patient-derived invasive breast carcinoma cell line growth inhibition [PI3K]
Conditions: spheroids with HUVEC and MSC; for viability, T/C: stronger effect = lower value
Summary of the method: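 Stroma-containing spheroids: tumor line, pooled-donor HUVEC, hMSC. Treatments: targeted agents with PI3K inhibitors. Dosing: clinically relevant, half-log spacing, 10 microM ceiling without known Cmax. Read-out: cell viability.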

[1] = compound alone, run of 05/09/2023
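Also: spheroids exposed to compound for 7 days before viability read.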
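For viability, T/C in this document: 100% = DMSO vehicle-treated spheroids.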

- IC50 (curve of first compound, second compound 0.00316 µM): 59 nM
- IC50 (curve of first compound, second compound 0.01 µM): < 9.49 nM
- IC50 (curve of first compound, second compound 0.0316 µM): < 9.49 nM
- IC50 (curve of first compound, second compound 0.1 µM): < 9.49 nM
- IC50 (curve of first compound, second compound 0.316 µM): < 9.49 nM
- IC50 (curve of first compound, second compound 1 µM): < 9.49 nM
Compound: Cn1cnc2c(F)c(Nc3ccc(Br)cc3Cl)c(C(=O)NOCCO)cc21 + COc1c(OCCCN2CCOCC2)ccc2c3n(c(=NC(=O)c4cnc(N)nc4)nc12)CCN3
- viability, T/C (second compound 0.00316 µM, first compound 0.00949 µM): 55.7%
- viability, T/C (second compound 0.00316 µM, first compound 0.03 µM): 59.1%
- viability, T/C (second compound 0.00316 µM, first compound 0.0949 µM): 43.1%
- viability, T/C (second compound 0.00316 µM, first compound 0.3 µM): 37.1%
- viability, T/C (second compound 0.00316 µM, first compound 0.949 µM): 21.8%
- viability, T/C (second compound 0.00316 µM, first compound 3 µM): 9.21%
- viability, T/C (second compound 0.01 µM, first compound 0.00949 µM): 39.5%
- viability, T/C (second compound 0.01 µM, first compound 0.03 µM): 39.4%
- viability, T/C (second compound 0.01 µM, first compound 0.0949 µM): 31.9%
- viability, T/C (second compound 0.01 µM, first compound 0.3 µM): 24.2%
- viability, T/C (second compound 0.01 µM, first compound 0.949 µM): 14%
- viability, T/C (second compound 0.01 µM, first compound 3 µM): 4.9%
- viability, T/C (second compound 0.0316 µM, first compound 0.00949 µM): 20.8%
- viability, T/C (second compound 0.0316 µM, first compound 0.03 µM): 18.8%
- viability, T/C (second compound 0.0316 µM, first compound 0.0949 µM): 16.9%
- viability, T/C (second compound 0.0316 µM, first compound 0.3 µM): 10.5%
- viability, T/C (second compound 0.0316 µM, first compound 0.949 µM): 6.05%
- viability, T/C (second compound 0.0316 µM, first compound 3 µM): 1.88%
- viability, T/C (second compound 0.1 µM, first compound 0.00949 µM): 6.77%
- viability, T/C (second compound 0.1 µM, first compound 0.03 µM): 5.8%
- viability, T/C (second compound 0.1 µM, first compound 0.0949 µM): 4.51%
- viability, T/C (second compound 0.1 µM, first compound 0.3 µM): 2.81%
- viability, T/C (second compound 0.1 µM, first compound 0.949 µM): 1.28%
- viability, T/C (second compound 0.1 µM, first compound 3 µM): 0.8%
- viability, T/C (second compound 0.316 µM, first compound 0.00949 µM): 1.87%
- viability, T/C (second compound 0.316 µM, first compound 0.03 µM): 2.04%
- viability, T/C (second compound 0.316 µM, first compound 0.0949 µM): 1.3%
- viability, T/C (second compound 0.316 µM, first compound 0.3 µM): 0.68%
- viability, T/C (second compound 0.316 µM, first compound 0.949 µM): 0.42%
- viability, T/C (second compound 0.316 µM, first compound 3 µM): 0.28%
- viability, T/C (second compound 1 µM, first compound 0.00949 µM): 0.82%
- viability, T/C (second compound 1 µM, first compound 0.03 µM): 1.37%
- viability, T/C (second compound 1 µM, first compound 0.0949 µM): 0.93%
- viability, T/C (second compound 1 µM, first compound 0.3 µM): 1.07%
- viability, T/C (second compound 1 µM, first compound 0.949 µM): 0.79%
- viability, T/C (second compound 1 µM, first compound 3 µM): 0.56%

- IC50 [1]: > 10000 nM
Compound: CC(Nc1ncnc2nc[nH]c12)c1cc2cccc(Cl)c2c(=O)n1-c1ccccc1 (stereo unspecified)
- viability, T/C (compound 0.0316 µM): 90% [middle of 8 runs]
- viability, T/C (compound 0.1 µM): 97.5% [middle of 8 runs]
- viability, T/C (compound 0.316 µM): 99.2% [middle of 8 runs]
- viability, T/C (compound 1 µM): 100% [middle of 8 runs]
- viability, T/C (compound 3.16 µM): 87.8% [middle of 8 runs]
- viability, T/C (compound 10 µM): 59.8% [middle of 8 runs]

- IC50 (curve of compound): 502 nM [middle of 4 runs]
Compound: Cn1nccc1Nc1nccc(-c2ccn(C(CO)c3ccc(Cl)c(F)c3)c(=O)c2)n1 (stereo unspecified)
- viability, T/C (compound 0.0316 µM): 93.8% [middle of 4 runs]
- viability, T/C (compound 0.1 µM): 84.3% [middle of 4 runs]
- viability, T/C (compound 0.316 µM): 57.5% [middle of 4 runs]
- viability, T/C (compound 1 µM): 37.7% [middle of 4 runs]
- viability, T/C (compound 3.16 µM): 26.1% [middle of 4 runs]
- viability, T/C (compound 10 µM): 20.1% and 21.8% and 21.4% (2×)

Compound: C[C@@H](NC(=O)c1ncnc(N)c1Cl)c1ncc(C(=O)Nc2cc(C(F)(F)F)c(Cl)cn2)s1
- viability, T/C (compound 0.0316 µM): 91.1% [middle of 4 runs]
- viability, T/C (compound 0.1 µM): 89.8% [middle of 4 runs]
- viability, T/C (compound 0.316 µM): 90.8% [middle of 4 runs]
- viability, T/C (compound 1 µM): 83.6% [middle of 4 runs]
- viability, T/C (compound 3.16 µM): 72.5% [middle of 4 runs]
- viability, T/C (compound 10 µM): 49.5% [middle of 4 runs]

- IC50 (curve of compound): 121 nM and 127 nM and 155 nM
Compound: Cn1ncc(Cl)c1-c1cc(C(=O)NC(CN)Cc2cccc(F)c2)sc1Cl (stereo unspecified)
- viability, T/C (compound 0.0316 µM): 80.2% [middle of 4 runs]
- viability, T/C (compound 0.1 µM): 55.6% [middle of 4 runs]
- viability, T/C (compound 0.316 µM): 34% [middle of 4 runs]
- viability, T/C (compound 1 µM): 21.5% [middle of 4 runs]
- viability, T/C (compound 3.16 µM): 13.1% [middle of 4 runs]
- viability, T/C (compound 10 µM): 4.48% [middle of 4 runs]

- IC50 [1]: 8.74 nM [middle of 8 runs]
Compound: COc1c(OCCCN2CCOCC2)ccc2c3n(c(=NC(=O)c4cnc(N)nc4)nc12)CCN3
- viability, T/C (compound 0.00316 µM): 69.1% [middle of 8 runs]
- viability, T/C (compound 0.01 µM): 46.5% [middle of 8 runs]
- viability, T/C (compound 0.0316 µM): 25.6% [middle of 8 runs]
- viability, T/C (compound 0.1 µM): 7.84% [middle of 8 runs]
- viability, T/C (compound 0.316 µM): 1.95% [middle of 8 runs]
- viability, T/C (compound 1 µM): 1.25% [middle of 7 runs]
